# What was measured:
# progesterone receptor = target: T1, progesterone receptor (Homo sapiens, UniProt P06401); assay: T47D Cell Alkaline Phosphatase Assay; format: cell-based; details: antagonist mode, T47D cells, in the presence of 1 nM progesterone, 24 hours
# T1 construct: Effects of Progestins and Antiprogestins on Alkaline Phosphatase Activity in T47D cells; endogenous in cells; host or cells: T47D cells
# T1 sequence (P06401 1-933): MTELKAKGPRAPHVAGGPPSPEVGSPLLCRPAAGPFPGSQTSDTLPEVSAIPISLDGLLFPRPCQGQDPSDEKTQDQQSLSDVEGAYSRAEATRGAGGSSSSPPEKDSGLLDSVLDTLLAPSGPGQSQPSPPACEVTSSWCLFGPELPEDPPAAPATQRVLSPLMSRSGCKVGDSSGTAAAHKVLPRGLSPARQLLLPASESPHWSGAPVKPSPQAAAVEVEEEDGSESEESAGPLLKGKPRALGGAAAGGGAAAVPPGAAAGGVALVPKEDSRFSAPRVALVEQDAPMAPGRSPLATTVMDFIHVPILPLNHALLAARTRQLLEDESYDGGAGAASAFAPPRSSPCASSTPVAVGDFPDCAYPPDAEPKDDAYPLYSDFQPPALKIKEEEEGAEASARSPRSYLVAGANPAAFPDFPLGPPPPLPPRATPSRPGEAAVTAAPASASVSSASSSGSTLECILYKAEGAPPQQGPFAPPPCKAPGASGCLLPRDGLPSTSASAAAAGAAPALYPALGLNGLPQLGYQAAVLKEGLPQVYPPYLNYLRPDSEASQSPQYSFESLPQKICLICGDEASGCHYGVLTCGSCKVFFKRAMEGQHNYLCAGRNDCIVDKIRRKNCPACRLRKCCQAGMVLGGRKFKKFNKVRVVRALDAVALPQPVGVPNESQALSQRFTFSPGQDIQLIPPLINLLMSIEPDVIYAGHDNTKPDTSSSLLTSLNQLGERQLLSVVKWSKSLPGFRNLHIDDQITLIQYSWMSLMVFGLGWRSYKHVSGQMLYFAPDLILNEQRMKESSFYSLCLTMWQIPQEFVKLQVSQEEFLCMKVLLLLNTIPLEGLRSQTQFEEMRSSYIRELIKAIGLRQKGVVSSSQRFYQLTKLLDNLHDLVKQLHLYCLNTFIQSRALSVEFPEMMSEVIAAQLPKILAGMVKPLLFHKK
# Procedure: A. Effects of Progestins and Antiprogestins on Alkaline Phosphatase Activity in T47D cells (T47D Alkaline Phosphatase Assay)
# The molecules of the present invention are anticipated to be active in the antagonist mode in the T47D alkaline phosphatase assay at concentrations of 3 μM or lower.
# Culture medium: DMEM:F12 (1:1) (GIBCO, BRL) supplemented with 5% (v/v) charcoal stripped fetal bovine serum (not heat-inactivated), 100 U/ml penicillin, 100 μg/ml streptomycin, and 2 mM GlutaMax (GIBCO, BRL).
# Alkaline phosphatase assay buffer: I. 0.1M Tris-HCI, pH 9.8, containing 0.2% Triton X-100, 0.1M Tris-HCI, pH 9.8, containing 4 mM p-nitrophenyl phosphate (Sigma).
# 2. Cell Culture And Treatment:
# Frozen T47D cells are thawed in a 37° C. water bath and diluted to 280,000 cells/ml in culture medium. To each well in a 96-well plate (Falcon, Becton Dickinson Labware), 180 μl of diluted cell suspension is added. Twenty μl of reference or test compounds diluted in the culture medium is then added to each well. When testing for progestin antagonist activity, reference antiprogestins or test compounds are added in the presence of 1 nM progesterone. The cells are incubated at 37° C. in a 5% CO2 humidified atmosphere for 24 hours. For high throughput screening, one concentration of each compound will be tested at 0.3 μg/ml. Based on an average molecular weight of 300 g/mol for the compounds in the library, the concentration is approximately 1 μM. Subsequently, active compounds will be tested in dose response assays to determine EC50 and IC50.
# 3. Alkaline Phosphatase Enzyme Assay:
# At the end of treatment, the medium is removed from the plate. Fifty μl of assay buffer I is added to each well. The plates are shaken in a titer plate shaker for 15 min. Then 150 μl of assay buffer II is added to each well. Optical density measurements are taken at 5 min intervals for 30 min. at a test wavelength of 405 nm.
# 4. Analysis of Dose-Response Data.
# For reference and test compounds, a dose response curve is generated for dose vs. the rate of enzyme reaction (slope). Square root-transformed data are used for analysis of variance and nonlinear dose response curve fitting for both agonist and antagonist modes. Huber weighting is used to down-weight the effects of outliers. EC50 or IC50 values are calculated from the retransformed values. JMP software (SAS Institute, Inc.) is used for both one-way analysis of variance and non-4 linear dose response analysis in both single dose and dose response studies.
# Progesterone and trimegestone are reference progestins and RU486 is the reference antiprogestin. All reference compounds are run in full dose response curves and the EC50 and IC50 values are calculated.
# [1] = tested on: rat uterine decidualization; assay: Rat Decidualization Assay (mature ovariectomized rats); format: in vivo; details: rat decidual assay, po
# Procedure: B. Progestational and Antiprogestational Activity in Mature Ovariectomized Rats (Rat Decidualization Assay)
# This assay is used to evaluate the effect of progestins and antiprogestins on rat uterine decidualization and compare the relative potencies of various test compounds.
# Test compounds are dissolved in 100% ethanol and mixed with corn oil (vehicle). Stock solutions of the test compounds in oil (Mazola™) are then prepared by heating (˜80° C.) the mixture to evaporate ethanol. Test compounds are subsequently diluted with 100% corn oil or 10% ethanol in corn oil prior to the treatment of animals. No difference in decidual response was found when these two vehicles were compared. […]
# Approximately 24 hr after the third injection, decidualization is induced in one of the uterine horns of anesthetized rats by scratching the antimesometrial luminal epithelium with a blunt 21 G needle. […] Approximately 24 hr following the final treatment, rats are sacrificed by CO asphyxiation and body weight measured. […]
# In agonist mode, the increase in weight of the decidualized uterine horn is calculated by D-horn/C-horn and logarithmic transformation is used to maximize normality and homogeneity of variance. […] EC50 is calculated from the transformed value. […] IC50 is calculated from the retransformed value. […]
IC50 (progesterone receptor),melting point,SMILES,ED50 [1]
13.3 nM,,"CN1C(=O)C(C)(C)c2cc(-c3ccc(C#N)n3C)ccc21 [1-methyl-5-(1,3,3-trimethyl-2-oxo-2,3-dihydro-1H-indol-5-yl)-1H-pyrrole-2-carbonitrile]",
3.2 nM,,"CC[C@@]1(C)C(=O)Nc2ccc(-c3ccc(C#N)n3C)cc21 (single isomer, unassigned)",
72.9 nM,,"CN1C(=O)C(C)(C)c2cc(-c3ccc(C#N)[nH]3)ccc21 [5-(1,3,3-trimethyl-2-oxo-2,3-dihydro-1H-indol-5-yl)-1H-pyrrole-2-carbonitrile]",
60 nM,,"N#Cc1ccc(-c2ccc3c(c2)C2(CCCC2)C(=O)N3)[nH]1 [5-(1,2-Dihydro-2-oxospiro[cyclopentane-1,3-[3H]indol]-5-yl)-1H-pyrrole-2-carbonitrile]",
20.4 nM,,"Cn1c(C#N)ccc1-c1ccc2c(c1)CC(=O)N2 [1-methyl-5-(2-oxo-2,3-dihydro-1H-indol-5-yl)-1H-pyrrole-2-carbonitrile]",
5.7 nM,,"CCC1C(=O)Nc2ccc(-c3ccc(C#N)n3C)cc21 (racemic) [5-(3-ethyl-2-oxo-2,3-dihydro-1H-indol-5-yl)-1-methyl-1H-pyrrole-2-carbonitrile]",
10 nM,,"Cn1c(C#N)ccc1-c1ccc2c(c1)C(C)(C)C(=O)N2 [5-(3,3-dimethyl-2-oxo-2,3-dihydro-1H-indol-5-yl)-1-methyl-1H-pyrrole-2-carbonitrile]",0.2 mg/k
30 nM,,"Cn1c(C#N)ccc1-c1ccc2c(c1)C1(CCCC1)C(=O)N2 [1-methyl-5-(2′-oxo-1′,2′-dihydrospiro[cyclopentane-1,3′-indol]-5′-yl)-1H-pyrrole-2-carbonitrile]",
300 nM,,"CC(C)(C)OC(=O)n1c(C#N)ccc1-c1ccc2c(c1)C1(CCCC1)C(=O)N2 [2-Cyano-5-(1,2-dihydro-2-oxospiro[cyclopentane-1,3-[3H]indol]-5-yl)-1H-pyrrole-1-carboxylic acid, tert-butyl ester]",
3.3 nM,233 to 235 °C,"CCC1(CC)C(=O)Nc2ccc(-c3ccc(C#N)n3C)cc21 [5-(3,3-Diethyl-2-oxo-2,3-dihydro-1H-indol-5-yl)-1-methyl-1H-pyrrole-2-carbonitrile]",
1 nM,,"Cn1c(C#N)ccc1-c1ccc2c(c1)C1(CCC1)C(=O)N2 [1-methyl-5-(2′-oxo-1′,2′-dihydrospiro[cyclobutane-1,3′-indol]-5′-yl)-1H-pyrrole-2-carbonitrile]",
7.4 nM,,"CC[C@]1(C)C(=O)Nc2ccc(-c3ccc(C#N)n3C)cc21 (single isomer, unassigned)",
6.1 nM,,"CC[C@H]1C(=O)Nc2ccc(-c3ccc(C#N)n3C)cc21 (single isomer, unassigned)",
8.1 nM,,"Cn1c(C#N)ccc1-c1ccc2c(c1)C1(CC1)C(=O)N2 [1-methyl-5-(2′-oxo-1′,2′-dihydrospiro[cyclopropane-1,3′-indol]-5′-yl)-1H-pyrrole-2-carbonitrile]",
13.1 nM,,"CC[C@@H]1C(=O)Nc2ccc(-c3ccc(C#N)n3C)cc21 (single isomer, unassigned)",
27.2 nM,,"CC1(C)C(=O)Nc2ccc(-c3ccc(C#N)[nH]3)cc21 [5-(3,3-Dimethyl-2-oxo-2,3-dihydro-1H-indol-5-yl)-1H-pyrrole-2-carbonitrile]",

# From patent US20060030615A1, “Progesterone receptor modulators comprising pyrrole-oxindole derivatives and uses thereof” (Wyeth, priority 2004, published 2006)
